From publication PMC4301837, “Aldosterone synthase inhibition: cardiorenal protection in animal disease models and translation of hormonal effects to human subjects” (Journal of Translational Medicine, 2014)
Marks after values point to notes of the source that are not given here.

What was measured:
[1] = dogs, ref D. Rigel, personal communication, cited from earlier work
[2] = test system: Ang II-stimulated aldosterone release; parameters: method as in D. Rigel, personal communication; settings: dogs; ref D. Rigel, personal communication; read-out: EC50, inhibition of Ang II-stimulated aldosterone release; cited from earlier work
human CYP11B2 = test system: human CYP11B2; parameters: method as in PMID 24899257; settings: cited from earlier work
[3] = test system: ACTH-stimulated aldosterone and corticosterone synthesis; parameters: method as in PMID 20354176; settings: in vivo rat ACTH stimulation model; previous study; cited from earlier work
[4] = test system: dTG rats with pre-established cardiorenal disease; assay: Survival study in older, enalapril-pre-treated dTG rats with established cardiorenal disease; type: in vivo, rat; settings: male dTG rats, 10 mg/kg/day (40 mg/L in drinking water) from 3 to 8 weeks of age
healthy male volunteers [5] = assay: Human safety and tolerability; type: in vivo; settings: single or multiple doses
healthy male volunteers [6] = assay: Human pharmacodynamics, multiple-dose phase
[7] = test system: dTG rats overexpressing human renin and angiotensinogen; type: in vivo
[8] = test system: ACTH-stimulated aldosterone, cortisol and precursors; assay: Human ACTH (cortisol) stimulation test, multiple-dose phase; type: in vivo
[9] = test system: dTG rats overexpressing human renin and angiotensinogen; assay: Survival study in young dTG rats; type: in vivo, rat
[10] = eplerenone 100 mg once daily, ANCOVA mean
[11] = dTG rats, LCI699 3–100 mg/kg/day, eplerenone 30 mg/kg/day

N#Cc1ccc([C@H]2CCCc3cncn32)cc1 [FAD286A, reference compound]
oral bioavailability ([1]; 1 mg/kg oral dose): 33%
half-life [1]: 54 to 72 min
EC50 [2]: 136 nM

CCOC(=O)[C@H](CCc1ccccc1)N[C@@H](C)C(=O)N1CCC[C@H]1C(=O)O [enalapril, reference compound]
prolongation of median survival by pre-treatment [4]: approximately 4 months

COC(=O)[C@@H]1CC2=CC(=O)CC[C@]2(C)[C@@]23O[C@@H]2C[C@@]2(C)[C@@H](CC[C@@]24CCC(=O)O4)[C@H]13 [eplerenone, reference compound]
changes in supine systolic or diastolic blood pressure or heart rate compared with placebo (healthy male volunteers [5]): no consistent changes
Plasma potassium, Δ Day2 vs baseline (Day −1) (healthy male volunteers [6]; [10]): +0.08 mEq/L
Plasma potassium, Δ Day7 vs baseline (Day −1) (healthy male volunteers [6]; [10]): −0.02 mEq/L
Plasma potassium, Δ Day14 vs Day 7 (healthy male volunteers [6]; [10]): −0.09 mEq/L
Plasma sodium, Δ Day2 vs baseline (Day −1) (healthy male volunteers [6]; [10]): −0.64 mEq/L
Plasma sodium, Δ Day7 vs baseline (Day −1) (healthy male volunteers [6]; [10]): +0.31 mEq/L
Plasma sodium, Δ Day14 vs Day 7 (healthy male volunteers [6]; [10]): −0.07 mEq/L
Urinary potassium, Δ Day 1 vs baseline (Day −1) (healthy male volunteers [6]; [10]): +5.2 mEq/24 h
Urinary potassium, Δ Day 7 vs baseline (Day −1) (healthy male volunteers [6]; [10]): +6.4 mEq/24 h
Urinary potassium, Δ Day 14 vs Day 7 (healthy male volunteers [6]; [10]): +3.7 mEq/24 h
Urinary sodium, Δ Day 1 vs baseline (Day −1) (healthy male volunteers [6]; [10]): +53.8‡ mEq/24 h
Urinary sodium, Δ Day 7 vs baseline (Day −1) (healthy male volunteers [6]; [10]): +16.2 mEq/24 h
Urinary sodium, Δ Day 14 vs Day 7 (healthy male volunteers [6]; [10]): −24.0 mEq/24 h
effect on plasma aldosterone concentration (healthy male volunteers [6]; eplerenone 100 mg, Day 1): had no effect
increase in 24 hour urinary aldosterone (healthy male volunteers [6]; eplerenone 100 mg, Day 1): 34%
increase in 24 h urinary aldosterone levels (healthy male volunteers [6]; eplerenone 100 mg, Day 7): 118%
increase in PRA from baseline (healthy male volunteers [6]; eplerenone 100 mg, Day 7): 92%
increase in plasma aldosterone (healthy male volunteers [6]; eplerenone 100 mg, Day 7): 46%
increase in 24 h urinary aldosterone levels (healthy male volunteers [6]; eplerenone 100 mg, Day 14): 161%
increase in PRA (healthy male volunteers [6]; eplerenone 100 mg, Day 14): 130%
increase in plasma aldosterone (healthy male volunteers [6]; eplerenone 100 mg, Day 14): 63%
effect on BUN levels ([7]; 30 mg/kg): no significant effect
effect on LV fractional shortening ([7]; 30 mg/kg): no significant effect
effect on LV isovolumic relaxation time to RR (IVRT/RR) ratio ([7]; 30 mg/kg): no significant effect
effect on urine output ([7]; 30 mg/kg): no significant effect
effect on plasma aldosterone concentration ([7]; dTG rats treated 3 to 7 weeks of age, LCI699 3–100 mg/kg/day in drinking water, eplerenone 30 mg/kg/day in chow): had no effect
effect on myocardial cell size ([7]; dTG rats, LCI699 3–100 mg/kg/day, eplerenone 30 mg/kg): reduced but did not normalize
effect on mean arterial pressure [7, 11]: neither LCI699 nor eplerenone normalized arterial pressure
effect on serum potassium [7, 11]: had no effect
effect on urinary albumin excretion [7, 11]: slightly increased
effect on urinary aldosterone excretion [7, 11]: significantly increased
effect on LV weight ([7]; dTG rats, LCI699 3–100 mg/kg/day, eplerenone 30 mg/kg, data not shown): had no effect
effect on ACTH-stimulated 11-DOC levels ([8]; LCI699 0.5 mg, eplerenone 100 mg): no significant effect
effect on cortisol precursors (ACTH-stimulated) ([8]; eplerenone 100 mg and lower doses of LCI699 (0.5, 1 mg), Day 6 or Day 13): no significant effect
increase in ACTH-stimulated peak aldosterone levels ([8]; eplerenone 100 mg, Day 6): 63%
increase in pre-ACTH aldosterone levels 2 h post-dose vs Day −2 ([8]; eplerenone 100 mg, Day 6): 29%
maximum effective dose for prolongation of survival ([9]; young dTG rats): 30 mg/kg
doses at which survival was significantly prolonged ([9]; young dTG rats without established cardiorenal disease, P < 0.01): > 10 mg/kg/day
maximum median survival time ([9]; young dTG rats, dose–median survival curves): 8.4 weeks
